Test results published in patent publication US11236084B2, “Substituted azaindoline derivatives as NIK inhibitors” (Janssen Pharmaceutica NV, priority 2017, dated 2022).
Like-named read-outs stand apart in the source and are kept apart here.

Biological target: recombinant human NF-kappaB-inducing kinase (NIK/MAP3K14) (Homo sapiens, UniProt Q99558)
Assay: Biological Assay B: inhibition of auto-phosphorylation of recombinant human NIK/MAP3K14 (AlphaScreen), performed at 2 locations
Assay type: biochemical
Details: averaged values
Procedure: Inhibition of Auto-Phosphorylation of Recombinant Human NF-kappaB-Inducing Kinase (NIK/MAP3K14) Activity (AlphaScreen®)
NIK/MAP3K14 auto-phosphorylation activity was measured using the AlphaScreen® (αscreen) format (Perkin Elmer). All compounds tested were dissolved in dimethyl sulfoxide (DMSO) and further dilutions were made in assay buffer. Final DMSO concentration was 1% (v/v) in assays. Assay buffer was 50 mM Tris pH 7.5 containing 1 mM EGTA (ethylene glycol tetraacetic acid), 1 mM DTT (dithiothreitol), 0.1 mM Na3VO4, 5 mM MgCl2, 0.01% Tween® 20. Assays were carried out in 384 well Alphaplates (Perkin Elmer). Incubations consisted of compound, 25 microM Adenosine-5′-triphosphate (ATP), and 0.2 nM NIK/MAP3K14. Incubations were initiated by addition of GST-tagged NIK/MAP3K14 enzyme, carried out for 1 h at 25° C. and terminated by addition of stop buffer containing anti-phospho-IKK Ser176/180 antibody. Protein A Acceptor and Glutathione-Donor beads were added before reading using an EnVision® Multilabel Plate Reader (Perkin Elmer). Signal obtained in the wells containing blank samples was subtracted from all other wells and IC50's were determined by fitting a sigmoidal curve to % inhibition of control versus Log10 compound concentration.
Assay B was performed at 2 different locations.
Data for the compounds of the invention in the above assays are provided in Table A (the values in Table are averaged values over all measurements on all batches of a compound; values as IC50 (nM)). (‘n.c.’ means not calculated: ‘Co.’ means compound)

[1] = location 1, AlphaScreen auto-phosphorylation, read-out: Assay B location 1 IC50
[2] = location 2, AlphaScreen auto-phosphorylation, read-out: Assay B location 2 IC50
[3] = location 2, NIK auto-phosphorylation, AlphaScreen, read-out: Assay B location 2 IC50

Sequence of recombinant human NF-kappaB-inducing kinase (NIK/MAP3K14) (Q99558 whole entry): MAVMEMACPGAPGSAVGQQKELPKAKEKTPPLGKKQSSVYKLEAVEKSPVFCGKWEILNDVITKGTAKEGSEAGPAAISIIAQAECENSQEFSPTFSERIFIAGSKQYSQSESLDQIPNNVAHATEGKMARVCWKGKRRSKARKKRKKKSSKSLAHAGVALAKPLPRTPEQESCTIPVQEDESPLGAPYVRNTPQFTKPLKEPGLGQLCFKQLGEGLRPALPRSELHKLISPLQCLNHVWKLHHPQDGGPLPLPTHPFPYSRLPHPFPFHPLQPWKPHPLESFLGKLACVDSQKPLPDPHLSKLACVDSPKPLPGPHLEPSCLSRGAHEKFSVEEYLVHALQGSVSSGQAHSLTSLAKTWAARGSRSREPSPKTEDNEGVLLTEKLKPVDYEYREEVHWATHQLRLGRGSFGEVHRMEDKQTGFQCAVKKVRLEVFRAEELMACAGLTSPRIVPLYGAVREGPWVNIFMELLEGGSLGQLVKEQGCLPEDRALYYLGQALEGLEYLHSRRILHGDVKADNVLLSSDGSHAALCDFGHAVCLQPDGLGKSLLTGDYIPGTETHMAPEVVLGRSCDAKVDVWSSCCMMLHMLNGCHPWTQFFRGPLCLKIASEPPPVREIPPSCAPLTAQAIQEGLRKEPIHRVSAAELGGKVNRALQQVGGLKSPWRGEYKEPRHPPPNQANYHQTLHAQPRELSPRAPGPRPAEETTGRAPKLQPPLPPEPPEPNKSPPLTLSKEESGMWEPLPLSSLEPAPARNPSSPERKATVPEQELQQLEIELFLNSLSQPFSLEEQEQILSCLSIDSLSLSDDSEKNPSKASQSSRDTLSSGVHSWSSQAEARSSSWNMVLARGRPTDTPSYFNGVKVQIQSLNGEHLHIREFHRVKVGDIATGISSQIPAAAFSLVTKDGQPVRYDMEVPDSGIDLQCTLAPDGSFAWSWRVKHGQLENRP

SMILES	IC50 [1] [nM]	IC50 [2] [nM]	IC50 [3] [nM]	IC50 (location 1, NIK auto-phosphorylation, AlphaScreen, read-out: Assay B location 1 IC50) [nM]
COc1cc(N2CCN(C)CC2)c(C#N)cc1Nc1nccc(-c2cnc3c(c2)C(C)(CO)CN3)n1 (stereo not shown) [Compound 280]	6.9	2.5	–	–
COc1cc(OCCN2CCOCC2)ccc1Nc1nccc(-c2cnc3c(c2)C(C)(CO)CN3)n1 (stereo not shown) [Compound 218]	–	15.1	–	–
COc1cc(N)c(Cl)cc1Nc1nccc(-c2cnc3c(c2)C(C)(CO)CN3)n1 (stereo not shown) [Compound 11]	6.2	0.7	–	–
Cc1cc(N2CC3(CCOCC3)C2)c(F)cc1Nc1nccc(-c2cnc3c(c2)C(C)(CO)CN3)n1 (stereo not shown) [Compound 281]	15.9	3	–	–
COc1ccc(NC(C)=O)cc1Nc1nccc(-c2cnc3c(c2)C(C)(CO)CN3)n1 (stereo not shown) [Compound 221]	–	10.5	–	–
CCN1CCN(c2cc(OC)c(Nc3nccc(-c4cnc5c(c4)C(C)(CO)CN5)n3)cc2Cl)CC1 (stereo not shown) [Compound 268]	4.5	0.7	–	–
COCCN(C)c1cc(OC)c(Nc2nccc(-c3cnc4c(c3)C(C)(CO)CN4)n2)cc1Cl (single isomer, unassigned) [Compound 5S]	–	1.6	–	–
COc1cc(N2CC3(CCOC3)C2)c(Cl)cc1Nc1nccc(-c2cnc3c(c2)C(C)(CO)CN3)n1 (stereo not shown) [Compound 284]	7.4	1.1	–	–
COc1cc(C(=O)N2CCC(OC)CC2)c(Cl)cc1Nc1nccc(-c2cnc3c(c2)C(C)(CO)CN3)n1 (stereo not shown) [Compound 296]	5.3	1.2	–	–
COc1c(Nc2nccc(-c3cnc4c(c3)C(C)(CO)CN4)n2)cc(Cl)cc1N1CCOCC1 (stereo not shown) [Compound 307]	12.3	3.1	–	–
CN(C)CCOc1cc(N2CCOCC2)c(Cl)cc1Nc1nccc(-c2cnc3c(c2)C(C)(CO)CN3)n1 (stereo not shown) [Compound 371]	437	209	–	–
CC1(CO)CNc2ncc(-c3ccnc(Nc4ccccc4Cl)n3)cc21 (stereo not shown) [Compound 178]	–	14.1	–	–
Cc1ccc(OC(F)(F)F)cc1Nc1nccc(-c2cnc3c(c2)C(C)(CO)CN3)n1 (stereo not shown) [Compound 210]	–	30.9	–	–
COc1cc(-n2cncn2)ccc1Nc1nccc(-c2cnc3c(c2)C(C)(CO)CN3)n1 (stereo not shown) [Compound 207]	–	16.6	–	–
COc1cccc(Cl)c1Nc1nccc(-c2cnc3c(c2)C(C)(CO)CN3)n1 (stereo not shown) [Compound 251]	> 10000	6760	–	–
CCN1CCN(c2cc(OC)c(Nc3nccc(-c4cnc5c(c4)C(C)(CO)CN5)n3)cc2Cl)CC1 (single isomer, unassigned) [Compound 295]	12.3	5.1	–	–
COc1cc(C(=O)N2CCCCC2)ccc1Nc1nccc(-c2cnc3c(c2)C(C)(CO)CN3)n1 (single isomer, unassigned) [Compound 157]	–	63.1	–	–
COCc1ccc(Nc2nccc(-c3cnc4c(c3)C(C)(CO)CN4)n2)c(OC)c1 (stereo not shown) [Compound 166]	–	18.2	–	–
COCCOc1cc(N2CCOCC2)c(C#N)cc1Nc1nccc(-c2cnc3c(c2)C(C)(CO)CN3)n1 (stereo not shown) [Compound 369]	123	64.6	–	–
COc1ccc(C)c(Nc2nccc(-c3cnc4c(c3)C(C)(CO)CN4)n2)c1 (stereo not shown) [Compound 220]	–	2.5	–	–

SMILES	IC50 [1] [nM]	IC50 [2] [nM]	IC50 [3] [nM]	IC50 (location 1, NIK auto-phosphorylation, AlphaScreen, read-out: Assay B location 1 IC50) [nM]
COc1cc(OC2CCN(C)CC2)c(F)cc1Nc1nccc(-c2cnc3c(c2)C(C)(CO)CN3)n1 (stereo not shown) [Compound 283]	5.3	2.8	–	–
COc1cc(N2CCC(N(C)C)C2)c(Cl)cc1Nc1nccc(-c2cnc3c(c2)C(C)(CO)CN3)n1 (stereo not shown) [Compound 278]	4.7	1	–	–
COc1cc(-n2cccn2)ccc1Nc1nccc(-c2cnc3c(c2)C(C)(CO)CN3)n1 (stereo not shown) [Compound 191]	–	~27	–	–
COc1cc(N2CCOCC2)c(C#N)cc1Nc1nccc(-c2cnc3c(c2)C(C)(CO)CN3)n1 (single isomer, unassigned) [Compound 4R]	55	36.3	–	–
COc1cc(N2CC3(CCOCC3)C2)c(Cl)cc1Nc1nccc(-c2cnc3c(c2)C(C)(CO)CN3)n1 (single isomer, unassigned) [Compound 3R]	18.3	5.7	–	–
COc1ccc(Cl)cc1Nc1nccc(-c2cnc3c(c2)C(C)(CO)CN3)n1 (stereo not shown) [Compound 183]	–	1.4	–	–
CC1(CO)CNc2ncc(-c3ccnc(Nc4cc(C#N)ccc4Cl)n3)cc21 (stereo not shown) [Compound 205]	–	5.1	–	–
COc1cc(N2CCC(O)CC2)c(Cl)cc1Nc1nccc(-c2cnc3c(c2)C(C)(C)CN3)n1 [Compound 336]	–	–	3.6	–
Cc1cc(N2CCOCC2)ccc1Nc1nccc(-c2cnc3c(c2)C(C)(CO)CN3)n1 (stereo not shown) [Compound 216]	–	47.9	–	–
COc1cc(N2CCC(OC)CC2)ccc1Nc1nccc(-c2cnc3c(c2)C(C)(CO)CN3)n1 (stereo not shown) [Compound 213]	–	13.8	–	–
CC1(CO)CNc2ncc(-c3ccnc(Nc4ccccc4OC4CCOCC4)n3)cc21 (stereo not shown) [Compound 247]	38	22.4	–	–
COc1cc(N2CCOCC2)c(F)cc1Nc1nccc(-c2cnc3c(c2)C(C)(CO)CN3)n1 (single isomer, unassigned) [Compound 254]	6.5	3.6	–	–
COc1cc(OCCN(C)C)c(Cl)cc1Nc1nccc(-c2cnc3c(c2)C(C)(CO)CN3)n1 (stereo not shown) [Compound 314]	4.1	3.1	–	–
COc1cc(C(=O)N2CCCCC2)ccc1Nc1nccc(-c2cnc3c(c2)C(C)(CO)CN3)n1 (single isomer, unassigned) [Compound 156]	–	3.2	–	–
COCCOc1cc(N2CCOCC2)c(F)cc1Nc1nccc(-c2cnc3c(c2)C(C)(CO)CN3)n1 (stereo not shown) [Compound 368]	191	112	–	–
COc1cc(CCO)ccc1Nc1nccc(-c2cnc3c(c2)C(C)(CO)CN3)n1 (stereo not shown) [Compound 185]	–	3.8	–	–
CC1(CO)CNc2ncc(-c3ccnc(Nc4cc(F)ccc4Cl)n3)cc21 (stereo not shown) [Compound 197]	–	11.2	–	–
CC1(CO)CNc2ncc(-c3ccnc(Nc4cc(F)c(N5CCOCC5)cc4Cl)n3)cc21 (single isomer, unassigned) [Compound 261]	8.3	7.2	–	–
CC1(CO)CNc2ncc(-c3ccnc(Nc4cccc(Cl)c4Cl)n3)cc21 (stereo not shown) [Compound 227]	72.4	41.7	–	–
Cc1cc(N2CCOCC2)c(Cl)cc1Nc1nccc(-c2cnc3c(c2)C(C)(CO)CN3)n1 (single isomer, unassigned) [Compound 257]	3	3.4	–	–

SMILES	IC50 [1] [nM]	IC50 [2] [nM]	IC50 [3] [nM]	IC50 (location 1, NIK auto-phosphorylation, AlphaScreen, read-out: Assay B location 1 IC50) [nM]
COc1cc(N2CC(OC)C2)c(F)cc1Nc1nccc(-c2cnc3c(c2)C(C)(CO)CN3)n1 (single isomer, unassigned) [Compound 298]	8.1	2.3	–	–
COc1cc(-c2cncn2C)ccc1Nc1nccc(-c2cnc3c(c2)C(C)(CO)CN3)n1 (stereo not shown) [Compound 170]	45.7	27.6	–	–
COc1cc(-n2cnc(C)c2)ccc1Nc1nccc(-c2cnc3c(c2)C(C)(CO)CN3)n1 (stereo not shown) [Compound 202]	–	26.9	–	–
COc1cc(Nc2nccc(-c3cnc4c(c3)C(C)(CO)CN4)n2)cc(C(F)(F)F)c1 (stereo not shown) [Compound 193]	–	22.9	–	–
COc1cc(CN2CCOCC2)c(Cl)cc1Nc1nccc(-c2cnc3c(c2)C(C)(CO)CN3)n1 (stereo not shown) [Compound 324]	7.9	3.8	–	–
COc1cc(OCCN2CCOCC2)c(Cl)cc1Nc1nccc(-c2cnc3c(c2)C(C)(CO)CN3)n1 (stereo not shown) [Compound 340]	–	–	2.6	–
COc1cc(N2CC3(CCOCC3)C2)c(Cl)cc1Nc1ncc(F)c(-c2cnc3c(c2)C(C)(CO)CN3)n1 (stereo not shown) [Compound 346]	–	–	–	7.4
COc1cc(C#N)c(C)c(Nc2nccc(-c3cnc4c(c3)C(C)(CO)CN4)n2)c1 (stereo not shown) [Compound 226]	7.4	4.1	–	–
COc1cc(C2CCN(C)CC2)c(Cl)cc1Nc1nccc(-c2cnc3c(c2)C(C)(CO)CN3)n1 (stereo not shown) [Compound 317]	1.6	1.7	–	–
CCC1(CCO)CNc2ncc(-c3ccnc(Nc4ccc(C(=O)NC5CCOCC5)cc4OC)n3)cc21 (stereo not shown) [Compound 158]	–	15.1	–	–
CCN1CCC(Oc2ccc(Nc3nccc(-c4cnc5c(c4)C(C)(CO)CN5)n3)c(OC)c2)C1 (stereo not shown) [Compound 233]	32.4	33.1	–	–
COc1cc(CN2CCOCC2)ccc1Nc1nccc(-c2cnc3c(c2)C(C)(CO)CN3)n1 (stereo not shown) [Compound 165]	–	23.4	–	–
COc1cc(CN(C)C)ccc1Nc1nccc(-c2cnc3c(c2)C(C)(CO)CN3)n1 (stereo not shown) [Compound 186]	–	40.7	–	–
COCCN(C)c1cc(OC)c(Nc2nccc(-c3cnc4c(c3)C(C)(CO)CN4)n2)cc1Cl (single isomer, unassigned) [Compound 5R]	–	31.6	–	–
COc1cc(N2CCOCC2)c(F)cc1Nc1nccc(-c2cnc3c(c2)C(C)(CO)CN3)n1 (stereo not shown) [Compound 243]	–	10	–	–
COc1ccc(C#N)cc1Nc1nccc(-c2cnc3c(c2)C(C)(CO)CN3)n1 (single isomer, unassigned) [Compound 249]	–	17.8	–	–
Cc1cc(N2CCOCC2)c(F)cc1Nc1nccc(-c2cnc3c(c2)C(C)(CO)CN3)n1 (single isomer, unassigned) [Compound 256]	155	155	–	–
COc1cc(N2CC3(CCOCC3)C2)c(C#N)cc1Nc1nccc(-c2cnc3c(c2)C(C)(CO)CN3)n1 (stereo not shown) [Compound 372]	13.4	1.6	–	–
